From US20120115867A1, “NEW CLASS OF HISTONE DEACETYLASE INHIBITORS” (DAC S.R.L., priority 2004, published 2012)

System: HDAC (nuclear fraction of Hela cells)
Test: Assay of enzyme inhibition of HDAC (BIOMOL Kit, fluorescence)
Format: biochemical
Settings: 30× diluted nuclear fraction of Hela cells; substrate 200 μM; 15 min at RT
Procedure: The in-vitro activity of HDAC inhibitors was assayed by means of a biochemical assay using a BIOMOL Kit, according to the instructions from the manufacturer (Biomolecular Research Laborator). Briefly, 15 μl of 30× diluted nuclear fraction of Hela cells, was diluted to 50 μl with the assay buffer containing the HDAC inhibitor and the substrate (lysine with acetylated amino on the side chain) at a concentration of 200 μM. The samples were incubated for 15 min at RT and then exposed to a developer (10 min at RT). In this last step a fluorophore was produced, whose fluorescence was measured using an excitation wavelength of 355 nm and an emission at 460 nm. The IC50 is calculated using GraphPad Software.
The reference HDAC inhibitors marked with (*) are those disclosed in the patent application WO2006/037761.

SMILES | IC50 [µM]
O=C(/C=C/c1cccc(/C=C/C(=O)c2ccccc2F)c1)NO [Ref (*)MC1661, reference compound] | 0.13
CN1CCN(c2cc(Cl)cc(C(=O)/C=C/c3cccc(/C=C/C(=O)NO)n3)c2)CC1 [Example 11, (E)-3-(6-{(E)-3-[3-Chloro-5-(4-methyl-piperazin-1-yl)-phenyl]-3-oxo-propenyl}-pyridin-2-yl)-N-hydroxy-acrylamide] | 0.029
COc1cc(C(=O)/C=C/c2ccc(/C=C/C(=O)NO)cc2)ccc1CN1CCOCC1 [Ref (*) 48, reference compound] | 0.0733
O=C(/C=C/c1cccc(/C=C/C(=O)c2cccc(Cl)c2)c1)NO [Ref (*)MC1672, reference compound] | 1.46
O=C(/C=C/c1ccc(/C=C/C(=O)c2ccc(N3CCOCC3)cc2)cc1)NO [Ref (*) 41, reference compound] | 1.36
O=C(/C=C/c1cccc(/C=C/C(=O)c2ccccc2Cl)c1)NO [Ref (*)MC1670, reference compound] | 0.389
O=C(/C=C/c1ccc(/C=C/C(=O)c2ccc(N3CCOCC3)cc2)c(F)c1)NO [Ref (*) 29, reference compound] | 2.84
O=C(/C=C/c1cccc(/C=C/C(=O)c2cccc(F)c2)c1)NO [Ref (*)MC1653, reference compound] | 1.37
